# Like-named read-outs stand apart in the source and are kept apart here.
# System: Pomacea canaliculata
# Assay: Immersion test of dilutions in beakers, mortality rate of Pomacea canaliculata
# Format: in vivo
# Conditions: for mortality at 0.0039 µg/mL / mortality at 0.0078 µg/mL / mortality at 0.0156 µg/mL / mortality at 0.0312 µg/mL / mortality at 0.0625 µg/mL / mortality at 0.125 µg/mL / mortality at 0.25 µg/mL / mortality at 0.5 µg/mL: Pomacea canaliculata, read-out: Mortality rate (%) of Pomacea canaliculata at different action time (h); for mortality at 0.0039 µg/mL: 0.0039 mg/L; for mortality at 0.0078 µg/mL: 0.0078 mg/L; for mortality at 0.0156 µg/mL: 0.0156 mg/L; for mortality at 0.0312 µg/mL: 0.0312 mg/L; for mortality at 0.0625 µg/mL: 0.0625 mg/L
# Description: 0.5 mg of 4-nitro-3-(trifluoromethyl)phenol and 0.5 mg of niclosamide were completely dissolved in 1 mL of a dimethyl sulfoxide (DMSO) solution separately, and diluted to 1,000 mL with deaminized water to obtain a 4-nitro-3-(trifluoromethyl)phenol solution with a concentration of 0.5 mg/L and a niclosamide solution with a concentration of 0.5 mg/L.
# The two solutions were separately diluted into 7 concentrations of dilutions using a doubling dilution method, including 0.25 mg/L, 0.125 mg/L, 0.0625 mg/L, 0.0312 mg/L, 0.0156 mg/L, and 0.0078 mg/L, and 0.0039 mg/L.
# 400 mL of the dilutions with different concentrations were separately poured into a 500 mL beaker, 10 Pomacea canaliculata samples were put into the dilution of each concentration, and each bottle mouth was sealed with wire mesh to completely immerse the Pomacea canaliculata in the dilution; clear water was used as a control group.
# The experimental data were used to calculate the mortality rate of each treatment according to the following formula. Each calculation result was rounded to two decimal places. A formula for calculating the mortality rate was: […]
# In the formula: P represented the mortality rate, in percentage (%); Σ^Ki represented • the number of dead Pomacea canaliculata, in snails; Σ^Ni represented the total number of treated Pomacea canaliculata, in snails.
smiles,measurement,setting,value
O=C(Nc1ccc([N+](=O)[O-])cc1Cl)c1cc(Cl)ccc1O [niclosamide],killing of Pomacea canaliculata (in words),"0.125 mg/L, within 24 h",all Pomacea canaliculata died
same,killing of Pomacea canaliculata (in words),"0.25 mg/L, action time 12 h",all Pomacea canaliculata died
same,killing of Pomacea canaliculata (in words),"0.5 mg/L, action time 12 h",all Pomacea canaliculata died
same,mortality at 0.0039 µg/mL,action time 0 h,0%
same,mortality at 0.0039 µg/mL,action time 12 h,0%
same,mortality at 0.0039 µg/mL,action time 24 h,20%
same,mortality at 0.0039 µg/mL,action time 36 h,30%
same,mortality at 0.0039 µg/mL,action time 48 h,30%
same,mortality at 0.0039 µg/mL,action time 60 h,30%
same,mortality at 0.0039 µg/mL,action time 72 h,40%
same,mortality at 0.0078 µg/mL,action time 0 h,0%
same,mortality at 0.0078 µg/mL,action time 12 h,10%
same,mortality at 0.0078 µg/mL,action time 24 h,40%
same,mortality at 0.0078 µg/mL,action time 36 h,40%
same,mortality at 0.0078 µg/mL,action time 48 h,40%
same,mortality at 0.0078 µg/mL,action time 60 h,40%
same,mortality at 0.0078 µg/mL,action time 72 h,70%
same,mortality at 0.0156 µg/mL,action time 0 h,0%
same,mortality at 0.0156 µg/mL,action time 12 h,10%
same,mortality at 0.0156 µg/mL,action time 24 h,30%
same,mortality at 0.0156 µg/mL,action time 36 h,60%
same,mortality at 0.0156 µg/mL,action time 48 h,70%
same,mortality at 0.0156 µg/mL,action time 60 h,70%
same,mortality at 0.0156 µg/mL,action time 72 h,70%
same,mortality at 0.0312 µg/mL,action time 0 h,0%
same,mortality at 0.0312 µg/mL,action time 12 h,10%
same,mortality at 0.0312 µg/mL,action time 24 h,50%
same,mortality at 0.0312 µg/mL,action time 36 h,70%
same,mortality at 0.0312 µg/mL,action time 48 h,80%
same,mortality at 0.0312 µg/mL,action time 60 h,80%
same,mortality at 0.0312 µg/mL,action time 72 h,80%
same,mortality at 0.0625 µg/mL,action time 0 h,0%
same,mortality at 0.0625 µg/mL,action time 12 h,30%
same,mortality at 0.0625 µg/mL,action time 24 h,50%
same,mortality at 0.0625 µg/mL,action time 36 h,80%
same,mortality at 0.0625 µg/mL,action time 48 h,80%
same,mortality at 0.0625 µg/mL,action time 60 h,100%
same,mortality at 0.0625 µg/mL,action time 72 h,100%
same,mortality at 0.125 µg/mL,"0.125 mg/L, action time 0 h",0%
same,mortality at 0.125 µg/mL,"0.125 mg/L, action time 12 h",90%
same,mortality at 0.125 µg/mL,"0.125 mg/L, action time 24 h",100%
same,mortality at 0.125 µg/mL,"0.125 mg/L, action time 36 h",100%
same,mortality at 0.125 µg/mL,"0.125 mg/L, action time 48 h",100%
same,mortality at 0.125 µg/mL,"0.125 mg/L, action time 60 h",100%
same,mortality at 0.125 µg/mL,"0.125 mg/L, action time 72 h",100%
same,mortality at 0.25 µg/mL,"0.25 mg/L, action time 0 h",0%
same,mortality at 0.25 µg/mL,"0.25 mg/L, action time 12 h",100%
same,mortality at 0.25 µg/mL,"0.25 mg/L, action time 24 h",100%
same,mortality at 0.25 µg/mL,"0.25 mg/L, action time 36 h",100%
same,mortality at 0.25 µg/mL,"0.25 mg/L, action time 48 h",100%
same,mortality at 0.25 µg/mL,"0.25 mg/L, action time 60 h",100%
same,mortality at 0.25 µg/mL,"0.25 mg/L, action time 72 h",100%
same,mortality at 0.5 µg/mL,"0.5 mg/L, action time 0 h",0%
same,mortality at 0.5 µg/mL,"0.5 mg/L, action time 12 h",100%
same,mortality at 0.5 µg/mL,"0.5 mg/L, action time 24 h",100%
same,mortality at 0.5 µg/mL,"0.5 mg/L, action time 36 h",100%
same,mortality at 0.5 µg/mL,"0.5 mg/L, action time 48 h",100%
same,mortality at 0.5 µg/mL,"0.5 mg/L, action time 60 h",100%
same,mortality at 0.5 µg/mL,"0.5 mg/L, action time 72 h",100%
same,mortality rate of Pomacea canaliculata within 72 h,"concentration of below 0.0312 mg/L, within 72 h",< 100%
